Laboratory results as given in paper PMC8042727, “Apoptosis-like cell death upon kinetoplastid induction by compounds isolated from the brown algae Dictyota spiralis” (Parasites & Vectors, 2021).
One block for each compound: values may come before it.

How the values were obtained:
Trypanosoma cruzi [1] = test: ATP level (CellTiter-Glo); format: cell-based; conditions: T. cruzi, IC90, 24 h, relative to negative control
Procedure: The CellTiter-Glo® luminescent cell viability assay (Promega, WI, USA) was used to quantify the adenosine triphosphate (ATP) concentration. Cells of the kinetoplastid strains (for both L. amazonensis [2 × 10^6 cells/ml] and T. cruzi [5 × 10^5cells/ml]) were incubated for 24 h with the compounds to be tested, at IC90 and 26 °C. After incubation, the cells were centrifuged and resuspended in 100 μl. To this volume, we added 100 μl of the reactive in white 96-well plates. After incubation, the luminescence signal was measured using the Enspire multimode plate reader. The decrease in ATP level was expressed as a percentage relative to the negative control. Miltefosine and benznidazole were tested as the positive control for L. amazonensis and T. cruzi, respectively.

[2] = test system: Trypanosoma cruzi epimastigotes (Y strain); test: In vitro evaluation on T. cruzi epimastigotes (AlamarBlue, 72 h); format: cell-based; conditions: nonlinear regression of AlamarBlue curve, read-out: IC90 Trypanosoma cruzi: epimastigote
Procedure: Experiments including in vitro activity assays of isolated compounds 1–3 were performed against the promastigote and amastigote stages of Leishmania amazonensis (MHOM/BR/77/LTB0016) and the epimastigote stage of Trypanosoma cruzi (Y strain). Promastigotes of L. amazonensis were cultured in Schneider’s medium (Sigma-Aldrich, St. Louis, MO, USA). Typanosoma cruzi strain Y was cultured in liver Infusion tryptose (LIT) medium. The three molecules 1-3 were tested against epimastigotes of T. cruzi. Briefly, the molecules were dissolved in DMSO in 96-well plates and a serially diluted concentration was made in 100 μl of LIT medium supplemented with 10% heat-inactivated FBS. In all tests, a maximum of 1% DMSO was used to dissolve the highest dose of the compounds without inducing any effects on the parasites; epimastigotes in the logarithmic growth phase were then counted, adjusted to 5 × 10^5 cells/ml, distributed on the previous 96-well plate and incubated at 27 °C for 72 h. The plate was observed under an inverted microscope after 72 h of incubation and analyzed statistically as described for the leishmanicidal test. Hoechst dye is a blue-fluorescent dye that stains condensed chromatin of apoptotic cells. To detect DNA condensation, the chromatin condensation/dead cell apoptosis kit was used (Invitrogen, Thermo Fisher Scientific, Waltham, MA, USA). Cells were incubated in the presence of the compounds to be tested at IC90. The IC90 values were determined using nonlinear regression of the AlamarBlue® curve. After 24 h of incubation, cells were harvested and resuspended in medium, following which 1 μl of Hoechst 33342 stock solution was added to parasites and incubated for 20 min. Results were analyzed by cell imaging using the Evos FL cell imaging system (Thermo Fisher Scientific). The experiments were repeated using a double-stain apoptosis detection kit (Hoechst 33342/PI; Thermo Fisher Scientific). […] A positive control was also tested: miltefosine (L. amazonensis) and benznidazole (T. cruzi).

Trypanosoma cruzi [3] = test: Oxidative stress / ROS accumulation (CellROX Deep Red); format: cell-based; conditions: T. cruzi, IC90, 24 h
Procedure: (§1) The reagent used for this assay was a fluorogenic probe to measure cellular oxidative stress upon oxidation by reactive oxygen species (ROS). To perform the test, cells were incubated with the compounds to be tested, at IC90 for 24 h. The cells were centrifuged and resuspended in a volume of 50 μl, following which CellROX™ Deep Red oxidative stress reagent (Thermo-Fisher Scientific) was added to 96-well plates at […]. The plates were then incubated for 30 min at 37 °C. After incubation, the results were analyzed by cell imaging using the Evos cell imaging system. Cells treated with different compounds were compared with untreated control cells and the positive control. Fluorescence intensity was also measured using the Enspire multimode plate reader at excitation/emission wavelengths of 640/665 nm. Accumulation ROS at the cellular level is a good indicator of oxidative stress and is precursor to a chain reaction leading damage at the cellular level to proteins, nucleic acids, lipids, membrane and organelles. These cellular alterations can lead to activation of the cell death process. As such, ROS play an important role in cell signaling and the apoptosis pathway. An intracellular excess of ROS can be detected by the cell-permeable CellROX™ Deep Red reagent, which is a fluorogenic ROS sensor.

[4] = Cytotoxicity on macrophages (AlamarBlue, 24 h); format: cell-based; conditions: mouse, J774A.1 macrophages, J774A.1, 24 h, read-out: CC50: murine macrophages
Procedure: Cytotoxicity of the tested molecules was evaluated after 24 h using macrophages of the murine cell line J774.A1 (American Type Culture Collection #TIB-67). The cells were maintained in DMEM medium at 37 °C in a 5% CO2 humidified incubator. The viability of the macrophages was determined with the AlamarBlue assay and the emitted fluorescence was assayed in an Enspire microplate reader (PerkinElmer Inc.) at 570/585 nm. Briefly, 50 µl of macrophages was placed in a 96-well flat bottom plate at a density of 2 × 10^5/ml in RPMI medium supplemented with 10% FBS without phenol. Cells were allowed to adhere for 15 min, and their progress was checked using a Leika inverted microscope (Leika Camera AG, Wetzlar, Germany). At the same time, a serially dilution of the test compounds was made in a deep 96-well plate with the same medium, and then 50 µl of each serially diluted molecule was added to each well of the 96-well flat bottom plate. Finally, 10% of AlamarBlue was added to each well. The plates were incubated at 37 °C in 5% CO2 for 24 h. Dose–response curves were plotted and the 50% cytotoxic concentrations (CC50) were obtained. The analyses were performed in triplicate.

L. amazonensis = test system: L. amazonensis; parameters: method as in PMID 22970332; conditions: read-out: IC50 (inhibition of infection by L. amazonensis); cited from earlier work
T. cruzi = test system: T. cruzi; parameters: method as in PMID 23442789; conditions: read-out: IC50 against T. cruzi; cited from earlier work
[5] = test system: Leishmania amazonensis promastigotes; test: DNA condensation assay (Hoechst 33342 / PI); format: cell-based; conditions: L. amazonensis promastigotes, IC90, 24 h
Procedure: (§2) Hoechst dye is a blue-fluorescent dye that stains condensed chromatin of apoptotic cells. To detect DNA condensation, the chromatin condensation/dead cell apoptosis kit was used (Invitrogen, Thermo Fisher Scientific, Waltham, MA, USA). Cells were incubated in the presence of the compounds to be tested at IC90. The IC90 values were determined using nonlinear regression of the AlamarBlue® curve. After 24 h of incubation, cells were harvested and resuspended in medium, following which 1 μl of Hoechst 33342 stock solution was added to parasites and incubated for 20 min. Results were analyzed by cell imaging using the Evos FL cell imaging system (Thermo Fisher Scientific). The experiments were repeated using a double-stain apoptosis detection kit (Hoechst 33342/PI; Thermo Fisher Scientific). […] A positive control was also tested: miltefosine (L. amazonensis) and benznidazole (T. cruzi).
DNA condensation is an important cellular event, providing evidence of apoptotic cell death. Hoechst dye is a blue-fluorescent dye that stains condensed chromatin. […] Also, using propidium iodine (PI), it is possible to distinguish dead cells, which stain red when PI penetrates the nucleus. The results of staining were evaluated using cell imaging. Different microscopy images are regrouped in Fig. 2 (for L. amazonensis) and Fig. 3 (for T. cruzi). […] A clear reduction in cell number is also evident.

[6] = test system: Leishmania amazonensis promastigotes; test: Anti-promastigotes assay (AlamarBlue, 72 h); format: cell-based
Procedure: Experiments including in vitro activity assays of isolated compounds 1–3 were performed against the promastigote and amastigote stages of Leishmania amazonensis (MHOM/BR/77/LTB0016) and the epimastigote stage of Trypanosoma cruzi (Y strain). Promastigotes of L. amazonensis were cultured in Schneider’s medium (Sigma-Aldrich, St. Louis, MO, USA). Typanosoma cruzi strain Y was cultured in liver Infusion tryptose (LIT) medium.
The bioassay was performed using the AlamarBlue® method as previously described. Promastigotes of L. amazonensis were grown at 26 °C in RPMI 1640 modified medium (Gibco BRL Life Technologies Inc., Gaithersburg, MD, USA) and supplemented with 10% heat-inactivated fetal bovine serum (FBS). Cultures in the logarithmic phase were seeded in sterilized 96-well microtiter plates (Corning™, Corning, NY, USA) (10^6 parasites/ml) containing the samples dissolved in 1% DMSO at the suitable concentration to be tested in serial dilutions, and Leishmania medium (RPMI 1640) was used to reach a final volume of 200 μl per well; then 10% of AlamarBlue® was added to the entire plate. After an incubation of 72 h, the plate was checked visually using an inverted microscope, then analyzed using an Enspire multimode plate reader (PerkinElmer, Inc., Waltham, MA, USA) at excitation and emission wavelengths of 570 and 585 nm, respectively. Dose–response curves were plotted, and the concentration at which one half of the maximal inhibitory effect was obtained (IC50) was determined. The analyses were performed in triplicate.
as §2

Leishmania amazonensis = test: Oxidative stress / ROS accumulation (CellROX Deep Red); format: cell-based; conditions: L. amazonensis, IC90, 24 h
Procedure: as §1

[7] = test system: Leishmania amazonensis amastigotes; test: Anti-amastigotes assay (intra-macrophagic stage, J774A.1); format: cell-based; conditions: J774.A1; Leishmania amazonensis, intracellular in J774A.1; read-out: IC50: amastigote
Procedure: The three molecules 1-3 were tested against the intra-macrophagic stage of L. amazonensis as previously described. Briefly, in a 96-well, flat-bottom plate, macrophages of the J774A.1 cell line (American Type Culture Collection #TIB-67) were cultured at a density of 2 × 10^5 cells/ml in RPMI 1640 medium supplemented with 10% heat-inactivated FBS and incubated for 1 h at 37 °C in a 5% CO2 atmosphere to allow almost complete attachment of the cells. The macrophages were then infected with L. amazonensis promastigotes in the stationary phase (7-day-old culture) at a ratio of 1:10 (macrophage:parasite) at a concentration of 2 × 10^6 cells/ml and incubated at 37 °C in 5% CO2 for 24 h. Wells were washed with medium to remove external promastigotes. Thereafter, the infected macrophages were treated with the serially diluted concentrations of the pure compounds for 24 h, following which the medium was removed carefully and replaced by 30 μl of new medium containing 0.05% sodium dodecyl sulfate and the plate shaken for 30 s. Subsequently, 170 μl of Schneider’s medium was added to each well to give a final volume of 200 μl, and 20 μl of AlamarBlue® was added to the plate; the plate was then incubated at 26 °C for 72 h, following which the plates were analyzed using the same protocol as for the promastigotes assay.

IC90 [2]: 25.6 µM
SMILES: O=C(Cn1ccnc1[N+](=O)[O-])NCc1ccccc1 [Benznidazole, reference compound]
decrease in ATP concentration (Trypanosoma cruzi [1]): > 80%
ROS accumulation (fluorescence vs negative control) (Trypanosoma cruzi [3]): significant increase in fluorescence
CC50 at 24 h [4]: 400 µM

SMILES: C[C@H]1/C=C/[C@@]2(C)CC[C@@H](C(C)(C)O)[C@@H]2[C@@H](O)C[C@](C)(O)/C=C/C1 [Dolabelladienetriol]
IC50 (L. amazonensis): 44 µM

SMILES: CC(C)=CC(=O)C/C(C)=C/CC/C(C)=C/CC/C(C)=C/CO [Eleganolone]
IC50 (T. cruzi): 58 µM

IC50 ([6]; 72 h, read-out: IC50: promastigote): 6.47 ± 0.58 µM
IC90 ([6]; nonlinear regression of AlamarBlue curve, read-out: IC90 Leishmania amazonensis: promastigote): 9.63 µM
IC50 [7]: 3.11 µM
SMILES: CCCCCCCCCCCCCCCCOP(=O)([O-])OCC[N+](C)(C)C [Miltefosine, reference compound]
chromatin condensation / cell death stage (Hoechst/PI staining) [5]: dead cells
ROS accumulation (fluorescence vs negative control) (Leishmania amazonensis): more remarkable
CC50 at 24 h [4]: 72.2 µM
